Data published in paper PMC8041433 (Environmental Health Perspectives, 2021).
“And” between values parts separate entries of the source, which are not always exact repeats. Equal entries are not always repeated. Structures can show the parent of a compound that is named as a salt. Where two headings read alike, the source gives them in different places.

Legend:
recombinant human AChE [1] = molecular target: T1, recombinant human AChE (Homo sapiens, UniProt P22303); assay: biochemical
recombinant human AChE [2] = molecular target: T1, recombinant human AChE; assay: biochemical; remark: listed apart in the source
AChE in SH-SY5Y cells = AChE in SH-SY5Y cells (Homo sapiens, UniProt P22303); assay: cell-based
Chain of AChE in SH-SY5Y cells (P22303 32-614): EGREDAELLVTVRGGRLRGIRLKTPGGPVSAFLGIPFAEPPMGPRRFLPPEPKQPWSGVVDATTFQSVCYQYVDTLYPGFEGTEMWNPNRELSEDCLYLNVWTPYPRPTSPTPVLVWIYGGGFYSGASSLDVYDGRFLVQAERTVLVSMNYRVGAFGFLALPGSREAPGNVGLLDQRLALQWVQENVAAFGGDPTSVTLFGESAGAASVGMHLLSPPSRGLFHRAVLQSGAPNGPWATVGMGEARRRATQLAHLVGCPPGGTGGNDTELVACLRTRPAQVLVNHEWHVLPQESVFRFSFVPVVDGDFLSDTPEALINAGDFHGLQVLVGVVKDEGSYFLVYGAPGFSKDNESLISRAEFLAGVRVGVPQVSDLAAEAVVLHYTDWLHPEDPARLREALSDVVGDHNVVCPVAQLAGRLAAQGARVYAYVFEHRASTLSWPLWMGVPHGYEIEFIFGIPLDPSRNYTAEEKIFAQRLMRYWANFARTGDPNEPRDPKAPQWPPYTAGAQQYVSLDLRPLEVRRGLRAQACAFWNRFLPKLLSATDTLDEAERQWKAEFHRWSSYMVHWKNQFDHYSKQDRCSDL

[3] = molecular target: AChE in SH-SY5Y spheroids (Homo sapiens, UniProt P22303); assay: cell-based
Chain of AChE in SH-SY5Y spheroids (P22303 32-614): as above

[4] = molecular target: AChE in neural stem cells (Homo sapiens, UniProt P22303); assay: cell-based
Chain of AChE in neural stem cells (P22303 32-614): as above

[5] = molecular target: AChE in neural stem cell spheroids (Homo sapiens, UniProt P22303); assay: cell-based; details: for IC50: potency (IC50)
Chain of AChE in neural stem cell spheroids (P22303 32-614): as above

recombinant human AChE [6] = molecular target: T1, recombinant human AChE; assay: biochemical; type: biochemical; details: for AC50: AC50 (uM)
recombinant human AChE [7] = molecular target: T1, recombinant human AChE
recombinant human AChE [8] = molecular target: T1, recombinant human AChE; assay: biochemical; remark: listed apart in the source
[9] = potency (IC50), SH-SY5Y cells monolayer
[10] = potency (IC50), SH-SY5Y spheroids (24 h)
[11] = potency (IC50), SH-SY5Y spheroids (48 h)
[12] = Neural stem cell spheroid (24 h)
[13] = Neural stem cell spheroid (48 h)
[14] = potency (IC50), Enzyme with microsomes
Throughout, for IR or R: key: Reversible (R); Irreversible (IR); ND, not detected in enzyme-based AChE inhibition assay from current study.

T1 sequence (P22303 32-614): as above

Compound	CC-v2 (curve classes) (recombinant human AChE [1])	Efficacy (recombinant human AChE [1])	IC50 (recombinant human AChE [1]; potency (IC50), Enzyme) [µM]	IC50 (recombinant human AChE [2]) [µM]	CC-v2 (curve classes) (AChE in SH-SY5Y cells)	IC50 (AChE in SH-SY5Y cells; IC50 (uM))	IC50 (AChE in SH-SY5Y cells; [9]) [µM]	IC50 [3, 10] [µM]	IC50 [3, 11] [µM]	IC50 [4] [µM]	IC50 [5, 12] [µM]	IC50 [5, 13] [µM]	IR or R (recombinant human AChE [6])	AC50 (recombinant human AChE [6]; activity_5)	AC50 (recombinant human AChE [6]; activity_10)	AC50 (recombinant human AChE [6]; activity_60)	CC-v2 (curve classes) (recombinant human AChE [7])	Efficacy (recombinant human AChE [7])	IC50 (recombinant human AChE [8]; [14]) [µM]	IC50 (recombinant human AChE [1]; IC50 (uM)) [µM]	further results
Cl.Clc1cc(Cl)c2c(c1)N=C1CCCCCN1C2 [PharmaGSID_47259]	-1.1	-94.138	0.54 ± 0.06	1.54 ± 0.18	-1.1	0.776 µM and 0.692 µM	0.87 ± 0.18	2.24 ± 2.76	0.85 ± 0.21	10.7 ± 2.66	13.5 ± 9.25	22	R	1.09 µM and 0.544 µM	0.153 µM and 1.22 µM and 1.09 µM	0.968 µM and 0.172 µM and 1.22 µM	-1.1	-90.391	1.79 ± 0.22		
O=C(O)/C=C/C(=O)O.O=C1c2ccccc2C(=O)N1CCc1noc(-c2ccc(CN3CCCCCC3)s2)n1 [PharmaGSID_48172]	-2.1	-99.042	11.1 ± 1.52	21.2 ± 1.44	-1.1	6.51 µM and 8.19 µM	16.3 ± 1.86	17.5 ± 16.2	14.5 ± 1.67	36.3	17.1 ± 3.86	20.5	R	22.9 µM and 36.3 µM and 32.3 µM	20.4 µM and 36.3 µM and 28.8 µM	32.3 µM and 40.7 µM and 22.9 µM	-2.2	-51.694	24.7 ± 1.61	23.1	IC50 (recombinant human AChE [8]; IC50 (uM)): 58 µM
CCOC(=O)C(SP(=S)(OC)OC)c1ccccc1 (centres unmarked) [Phenthoate]	-2.2	-77.281	25.1 ± 2.88	38.1 ± 2.48	-1.1 and -2.1	31.7 µM and 22.4 µM and 25.2 µM	12.6 ± 1.44	1.01 ± 1.29	20.4 ± 5.69	33.2 ± 15.3	26.5 ± 11.5	8.66		44.4 µM	49.8 µM and 39.5 µM	39.5 µM and 28 µM and 31.4 µM	-3	-48.701	29.1 ± 1.97	71	IC50 (recombinant human AChE [8]; IC50 (uM)): 79.6 µM
CCOP(=S)(OCC)SCn1c(=O)oc2cc(Cl)ccc21 [Phosalone]	4				-2.2	56.4 µM and 48.1 µM and 35.6 µM and 76.2 µM		66.3	50	17.1	9.61	10.5		55.9 µM and 35.2 µM	55.9 µM and 62.7 µM and 49.8 µM	62.7 µM and 55.9 µM	-1.1		2.91		AChE inhibition (result in words) (recombinant human AChE [1]): did not show effects; potency (IC50), Enzyme (recombinant human AChE [1]): Inactive; potency (IC50), Enzyme-based assay with heat-inactivated microsomes (recombinant human AChE [2]): Inactive; potency (IC50), SH-SY5Y cells monolayer (AChE in SH-SY5Y cells): Inactive; IC50 (recombinant human AChE [8]; IC50 (uM)): 3.99 µM and 8.55 µM
CCOP(=S)(OCC)O/N=C(\C#N)c1ccccc1 [Phoxim]	-2.2 and -2.1		23.4	22 ± 4.1	-2.1	17.4 µM and 63.3 µM and 30.9 µM and 71 µM and 34.7 µM	20.9	13.3	12.9	3.18	0.33	0.4		27.3 µM and 24.3 µM	30.6 µM and 24.3 µM	21.7 µM and 19.3 µM and 24.3 µM	-1.1		0.67		
Cc1nc(N(C)C)nc(OC(=O)N(C)C)c1C [Pirimicarb]	-1.1	-85.325	12.7 ± 2.36	8.21 ± 0.56	-1.1	11.2 µM	7.42 ± 2.77	7.09 ± 4.92		2.84 ± 0.65	1.4 ± 0.16	2.47	R	49.8 µM and 62.7 µM and 22.2 µM	19.8 µM and 44.4 µM and 49.8 µM	19.8 µM and 5.59 µM and 9.93 µM	-2.2	-73.016	8.53 ± 0.55		IC50 ([3]; read-out: potency (IC50), SH-SY5Y spheroids (48 h)): 15.2 ± 0.99 µM
CCCSP(=O)(OCC)Oc1ccc(Br)cc1Cl (centres unmarked) [Profenofos]	-1.1	-92.505	3.85	5.25 ± 0.34	-1.1	6.88 µM and 5.46 µM and 7.72 µM	3.71 ± 0.24	2.57 ± 2.21	2.89 ± 0.65	1.05 ± 0.14	0.2 ± 0.09	0.78		10.9 µM and 17.2 µM and 15.3 µM	12.2 µM and 15.3 µM	6.85 µM and 7.69 µM and 13.7 µM	-1.1	-79.632	3.43	3.87	IC50 (recombinant human AChE [8]; IC50 (uM)): 2.74 µM
CNC(=O)Oc1cc(C)cc(C(C)C)c1 [Promecarb]	-1.1	-99.272	0.48 ± 0.12	0.61 ± 0.08	-1.1	0.633 µM and 0.564 µM	0.88 ± 0.1	1.38 ± 1.23	0.68 ± 0.09	1.35 ± 0.18	0.93 ± 0.07	0.66	R	1.98 µM and 1.25 µM	0.885 µM and 1.77 µM	0.703 µM and 0.498 µM and 1.11 µM	-1.1	-98.92	0.68 ± 0.11		
CNC(=O)Oc1ccccc1OC(C)C [Propoxur]	-1.1		1.55 ± 0.43	1.91 ± 0.12	-1.1	2.24 µM and 2 µM (2×) and 1.59 µM and 1.78 µM	3.05 ± 0.52	3.55 ± 2.59	2.45 ± 0.61	17 ± 1.1	20.1 ± 4.2	35.8	R	22.2 µM and 14 µM and 6.27 µM	4.98 µM and 14 µM and 7.03 µM	1.77 µM and 1.11 µM and 2.5 µM	-1.1		1.76		
CCOC(=O)c1cn2nc(OP(=S)(OCC)OCC)cc2nc1C [Pyrazophos]	-3	-45.459	49.8	85.3 ± 5.56	-2.1	35.6 µM and 71 µM and 79.6 µM	46.2	29.7	46.2	16.4	2.46	4.46				55.9 µM and 62.7 µM	-1.1	-98.116	7.89		
O=C(c1ccc(OCCN2CCCCC2)cc1)c1c(-c2ccc(O)cc2)sc2cc(O)ccc12 [Raloxifene hydrochloride, reference compound]	-1.1		2.14 ± 0.13	3.43 ± 0.58	-1.1 and -2.1	27.5 µM and 25.2 µM and 31.7 µM	4.29 ± 0.59	1.03 ± 0.78	4.19 ± 0.94	14.1 ± 1.61	6.29 ± 0.72	9.85	R	1.57 µM and 2.22 µM and 1.11 µM	1.57 µM and 1.4 µM and 3.14 µM	1.25 µM and 1.11 µM and 2.22 µM	-1.1		3.42 ± 0.58		
C=CC[N+]1([C@H]2C[C@H]3[C@@H]4CC[C@H]5C[C@H](OC(C)=O)[C@@H](N6CCCCC6)C[C@]5(C)[C@H]4CC[C@]3(C)[C@H]2OC(=O)CC)CCCCC1 [Rapacuronium bromide, reference compound]	-2.2	-53.371	22.6	26.3 ± 1.71	-2.1	27.5 µM and 30.9 µM and 34.7 µM	16	8.24	22.6	5.27	3.64	1.37	R	21.7 µM and 19.3 µM	13.7 µM and 21.7 µM and 19.3 µM	21.7 µM and 38.5 µM and 19.3 µM	4	0	26.3	30.9	
CC/N=c1\cc2oc3cc(NCC)c(C)cc3c(-c3ccccc3C(=O)OCC)c-2cc1C [Rhodamine 6G]	-1.1		22.8	41.2 ± 2.79	-1.1	8.94 µM and 6.31 µM and 7.1 µM and 7.07 µM and 7.96 µM and 8.91 µM	12.4	15.8	9.25	30.5	29.7	40.3	R	39.5 µM and 35.2 µM and 28 µM	39.5 µM and 49.8 µM and 35.2 µM	25 µM and 35.2 µM	-2.2 and -2.1		41.3		
CCN1CCC2(CC1)COc1cc3c(cc12)N(C(=O)c1ccc(-c2ccc(-c4nnc(C)o4)cc2C)cc1)CC3.Cl [SB236057A]	-2.1	-86.107	38.3 ± 6.89	67.8 ± 8.64	-2.1	29.3 µM and 23.2 µM	33.8 ± 2.29	27.8 ± 11.7	25.9 ± 2.98	42.6 ± 2.88		4.03	R	72.8 µM and 64.9 µM and 45.9 µM	51.5 µM and 91.6 µM	64.9 µM and 51.5 µM and 72.8 µM	4	0	66 ± 15.1	32.8	potency (IC50), Neural stem cell spheroid (24 h) [5]: Inactive
Cc1nc2n(c(=O)c1CCN1CCC(C(=O)c3ccc(F)cc3)CC1)CCS2 [Setoperone, reference compound]	-2.2	-57.619	14.2 ± 0.96	20.1 ± 1.36	-2.1	13.8 µM and 12.3 µM and 15.5 µM	16 ± 1.08	2.66 ± 1.88	13.7 ± 1.58	8.35 ± 1.14			R	4.32 µM and 6.11 µM and 7.69 µM	4.85 µM and 7.69 µM and 10.9 µM	6.11 µM and 6.85 µM	4	0	18.6 ± 1.21	30.9	potency (IC50), Neural stem cell spheroid (24 h) [5]: Inactive
